Like-named read-outs stand apart in the source and are kept apart here.
Key:
CYP1A [1] = experiment: CYP induction in cryopreserved human hepatocytes (mRNA), CYP1A; format: in vitro ADME; conditions: positive control β-naphthoflavone
CYP2B6 = experiment: CYP induction in cryopreserved human hepatocytes (mRNA), CYP2B6; format: in vitro ADME; conditions: positive control phenobarbital
CYP2C9 [2] = experiment: CYP induction in cryopreserved human hepatocytes (mRNA), CYP2C9; format: in vitro ADME; conditions: positive control rifampicin
CYP3A = experiment: CYP induction in cryopreserved human hepatocytes (mRNA), CYP3A; format: in vitro ADME; conditions: positive control rifampicin
[3] = system: cryopreserved human hepatocytes; experiment: Fraction of hepatocytes remaining (DAPI cell count) in CYP induction study; format: cell-based; conditions: 48 hours
Experimental: After completion of the incubation, the cells were washed with DPBS. After washing with DPBS, the cells were fixed using 3.7% p-formaldehyde in DPBS for one hour. The formaldehyde was removed and 0.6 μmol/L DAPI in DPBS was added. The cells were stained by DAPI for 20 minutes and then washed three times with DPBS. Cells were counted using an ArrayScan II (Cellomics, Pittsburgh, Pa.) with a 5× objective lens. Fraction of hepatocytes remaining was calculated using the number of cells found at a treatment condition divided by cells found with the vehicle control.

CYP3A4/5 [4] = experiment: Time-dependent inactivation (TDI) of CYP3A4/5 in human liver microsomes; format: in vitro ADME; conditions: for inactivation of CYP3A4/5 (in words): using midazolam as probe
Karpas-422 xenograft = experiment: Efficacy study in Karpas-422 xenograft model; format: in vivo, mice
[5] = format: in vivo; conditions: oral, BID, up to 28 days, Karpas-422 xenograft mice
CYP2C19 = CYP2C19 (Homo sapiens (Human), UniProt P33261); conditions: read-out: Reversible inhibition IC50 CYP2C19; human liver microsomes
CYP1A [6] = experiment: in vitro; conditions: human, pooled human liver microsomes, pH 7.4
CYP2C9 [7] = experiment: in vitro; conditions: human, pooled human liver microsomes, pH 7.4
CYP3A4/5 [8] = experiment: in vitro; conditions: human, pooled human liver microsomes
[9] = Metabolic stability in rat liver microsomes; conditions: pH 7.4
[10] = Metabolic stability in dog liver microsomes; conditions: pH 7.4
[11] = Metabolic stability in mouse liver microsomes; conditions: pH 7.4
[12] = Metabolic stability in human liver microsomes; conditions: for metabolic clearance in human liver microsomes (in words): HLM; for CLint scaled: human, human liver microsomes, pH 7.4
[13] = Metabolic stability in monkey liver microsomes; conditions: cynomolgus monkey, pH 7.4
CYP2C8 = CYP2C8 (Homo sapiens (Human), UniProt P10632); experiment: Reversible CYP inhibition in pooled human liver microsomes, CYP2C8; conditions: read-out: Reversible inhibition IC50 CYP2C8
[14] = system: human cytochromes P450 (CYP); experiment: Reversible CYP inhibition in human liver microsomes, overall assessment
CYP2D6 = CYP2D6 (Homo sapiens (Human), UniProt P10635); experiment: Reversible CYP inhibition in pooled human liver microsomes, CYP2D6; conditions: read-out: Reversible inhibition IC50 CYP2D6
[15] = target: wild-type EZH2 (PRC2 complex) (Homo sapiens (Human), UniProt Q15910); experiment: Wild-type PRC2 enzyme assay (WT EZH2)
EZH2 (PRC2 complex) = EZH2 (PRC2 complex) (Homo sapiens (Human), UniProt Q15910); experiment: PRC2 enzyme assay on peptide substrate (EZH2 peptide v2)
[16] = pH 7.4, probe testosterone (250 μmol/L), CYP3A4/5, human liver microsomes, read-out: Time-Dependent Inactivation KI

CYP2C19, sequence (P33261 whole entry): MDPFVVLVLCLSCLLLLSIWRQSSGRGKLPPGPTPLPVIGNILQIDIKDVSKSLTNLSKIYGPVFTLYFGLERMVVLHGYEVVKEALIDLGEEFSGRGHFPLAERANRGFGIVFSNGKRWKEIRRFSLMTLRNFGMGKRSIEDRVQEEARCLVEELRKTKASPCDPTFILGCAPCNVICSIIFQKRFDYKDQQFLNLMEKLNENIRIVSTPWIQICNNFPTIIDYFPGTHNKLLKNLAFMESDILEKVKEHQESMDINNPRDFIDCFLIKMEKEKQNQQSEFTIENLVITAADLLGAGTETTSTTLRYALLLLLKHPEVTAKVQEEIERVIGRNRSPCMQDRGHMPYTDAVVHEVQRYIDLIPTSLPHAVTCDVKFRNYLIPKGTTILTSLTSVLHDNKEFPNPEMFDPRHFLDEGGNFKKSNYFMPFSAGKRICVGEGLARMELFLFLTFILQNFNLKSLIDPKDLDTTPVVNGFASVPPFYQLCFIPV
CYP2C8, sequence (P10632 whole entry): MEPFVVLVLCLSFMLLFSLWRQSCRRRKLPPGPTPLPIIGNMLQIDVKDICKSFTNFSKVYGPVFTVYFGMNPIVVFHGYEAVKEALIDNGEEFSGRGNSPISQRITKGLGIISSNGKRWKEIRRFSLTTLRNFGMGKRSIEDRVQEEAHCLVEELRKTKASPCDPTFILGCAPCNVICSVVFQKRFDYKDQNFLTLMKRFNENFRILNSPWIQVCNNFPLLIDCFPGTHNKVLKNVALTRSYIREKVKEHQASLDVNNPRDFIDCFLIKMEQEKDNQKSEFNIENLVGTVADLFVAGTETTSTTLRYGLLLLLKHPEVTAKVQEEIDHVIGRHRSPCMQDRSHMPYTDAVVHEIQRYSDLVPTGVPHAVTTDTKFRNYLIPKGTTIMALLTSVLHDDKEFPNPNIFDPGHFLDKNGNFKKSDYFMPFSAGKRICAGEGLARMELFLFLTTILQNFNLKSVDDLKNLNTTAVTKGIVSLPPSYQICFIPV
CYP2D6, sequence (P10635 whole entry): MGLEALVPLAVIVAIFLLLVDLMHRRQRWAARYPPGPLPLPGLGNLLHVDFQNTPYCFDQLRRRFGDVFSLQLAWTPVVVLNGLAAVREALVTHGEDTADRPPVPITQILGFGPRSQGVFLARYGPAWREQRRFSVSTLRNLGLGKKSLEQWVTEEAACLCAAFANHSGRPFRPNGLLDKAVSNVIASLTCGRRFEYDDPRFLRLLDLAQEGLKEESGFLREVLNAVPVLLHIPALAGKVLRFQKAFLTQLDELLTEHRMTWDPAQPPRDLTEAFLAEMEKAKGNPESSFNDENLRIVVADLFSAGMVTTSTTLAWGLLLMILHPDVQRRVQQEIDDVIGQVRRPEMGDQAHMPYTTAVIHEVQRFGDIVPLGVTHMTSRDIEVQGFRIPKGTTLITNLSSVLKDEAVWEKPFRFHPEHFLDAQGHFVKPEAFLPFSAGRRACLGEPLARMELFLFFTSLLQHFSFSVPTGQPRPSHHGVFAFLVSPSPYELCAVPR
EZH2 (PRC2 complex), sequence (Q15910 other isoform, or with tags, fused parts or gaps): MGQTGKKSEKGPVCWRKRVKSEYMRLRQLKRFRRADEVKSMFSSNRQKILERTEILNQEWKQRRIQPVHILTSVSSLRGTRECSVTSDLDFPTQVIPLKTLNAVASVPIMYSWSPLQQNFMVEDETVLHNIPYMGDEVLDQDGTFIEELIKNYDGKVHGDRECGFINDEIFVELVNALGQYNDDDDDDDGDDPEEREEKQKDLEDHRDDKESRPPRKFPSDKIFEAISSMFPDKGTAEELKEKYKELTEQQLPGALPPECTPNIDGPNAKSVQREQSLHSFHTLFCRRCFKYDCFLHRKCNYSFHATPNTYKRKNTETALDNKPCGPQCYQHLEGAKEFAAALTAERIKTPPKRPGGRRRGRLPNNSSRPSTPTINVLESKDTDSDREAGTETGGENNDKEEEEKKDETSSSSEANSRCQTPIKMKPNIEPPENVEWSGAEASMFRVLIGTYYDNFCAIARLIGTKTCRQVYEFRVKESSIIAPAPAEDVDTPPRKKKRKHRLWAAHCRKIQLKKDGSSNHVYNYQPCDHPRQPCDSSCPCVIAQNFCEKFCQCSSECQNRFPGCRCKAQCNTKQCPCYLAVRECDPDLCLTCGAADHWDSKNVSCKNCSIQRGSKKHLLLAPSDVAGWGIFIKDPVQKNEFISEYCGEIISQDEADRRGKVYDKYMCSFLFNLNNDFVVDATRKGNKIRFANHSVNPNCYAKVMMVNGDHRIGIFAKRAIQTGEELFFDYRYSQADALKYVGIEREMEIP
EZH2 (PRC2 complex), sequence (O75530 whole entry partner): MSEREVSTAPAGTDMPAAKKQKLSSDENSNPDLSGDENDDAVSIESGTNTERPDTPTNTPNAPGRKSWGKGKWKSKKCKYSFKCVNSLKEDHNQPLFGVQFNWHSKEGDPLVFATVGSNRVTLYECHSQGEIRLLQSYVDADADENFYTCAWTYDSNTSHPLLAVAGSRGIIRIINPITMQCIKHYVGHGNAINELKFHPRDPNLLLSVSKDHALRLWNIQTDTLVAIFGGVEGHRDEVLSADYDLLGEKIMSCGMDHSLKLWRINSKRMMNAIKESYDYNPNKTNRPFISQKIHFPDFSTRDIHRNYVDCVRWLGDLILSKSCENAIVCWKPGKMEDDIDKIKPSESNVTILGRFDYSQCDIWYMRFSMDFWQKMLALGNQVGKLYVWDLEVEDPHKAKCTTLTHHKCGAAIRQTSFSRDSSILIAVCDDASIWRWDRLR
EZH2 (PRC2 complex), sequence (Q15022 whole entry partner): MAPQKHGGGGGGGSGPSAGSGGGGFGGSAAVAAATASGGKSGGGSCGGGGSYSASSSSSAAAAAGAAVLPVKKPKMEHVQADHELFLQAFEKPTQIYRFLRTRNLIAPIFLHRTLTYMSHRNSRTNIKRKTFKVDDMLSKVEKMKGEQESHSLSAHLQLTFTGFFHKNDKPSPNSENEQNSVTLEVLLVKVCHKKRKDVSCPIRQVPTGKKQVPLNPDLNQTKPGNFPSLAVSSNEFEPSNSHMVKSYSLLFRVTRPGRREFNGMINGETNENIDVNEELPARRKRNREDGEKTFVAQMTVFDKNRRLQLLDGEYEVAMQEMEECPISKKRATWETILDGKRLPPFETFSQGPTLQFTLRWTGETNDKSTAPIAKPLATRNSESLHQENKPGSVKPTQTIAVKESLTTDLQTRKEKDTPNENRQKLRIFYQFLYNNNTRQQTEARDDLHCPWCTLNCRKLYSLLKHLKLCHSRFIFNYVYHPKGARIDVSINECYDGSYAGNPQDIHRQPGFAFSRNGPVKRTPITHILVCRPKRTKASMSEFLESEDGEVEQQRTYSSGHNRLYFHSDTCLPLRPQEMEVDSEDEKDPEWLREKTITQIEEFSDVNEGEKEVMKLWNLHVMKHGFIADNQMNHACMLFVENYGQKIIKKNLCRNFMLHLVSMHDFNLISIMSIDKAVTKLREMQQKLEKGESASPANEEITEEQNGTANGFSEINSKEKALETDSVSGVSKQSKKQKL
EZH2 (PRC2 complex), sequence (Q09028 whole entry partner): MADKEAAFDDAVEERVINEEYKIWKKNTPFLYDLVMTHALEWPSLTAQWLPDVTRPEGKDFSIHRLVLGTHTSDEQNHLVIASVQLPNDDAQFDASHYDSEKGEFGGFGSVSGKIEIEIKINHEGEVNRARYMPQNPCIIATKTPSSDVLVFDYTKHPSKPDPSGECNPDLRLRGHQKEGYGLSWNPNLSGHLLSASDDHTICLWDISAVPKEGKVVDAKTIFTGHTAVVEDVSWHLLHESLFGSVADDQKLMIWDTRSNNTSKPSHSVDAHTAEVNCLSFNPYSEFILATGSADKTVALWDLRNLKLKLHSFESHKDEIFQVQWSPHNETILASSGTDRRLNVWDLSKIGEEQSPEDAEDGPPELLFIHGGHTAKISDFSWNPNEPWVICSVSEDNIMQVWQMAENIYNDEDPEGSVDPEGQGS
wild-type EZH2 (PRC2 complex), sequence (Q15910 other isoform, or with tags, fused parts or gaps): as the sequence (Q15910 other isoform, or with tags, fused parts or gaps) above
wild-type EZH2 (PRC2 complex), sequence (O75530 whole entry partner): as the sequence (O75530 whole entry partner) above
wild-type EZH2 (PRC2 complex), sequence (Q15022 whole entry partner): as the sequence (Q15022 whole entry partner) above
wild-type EZH2 (PRC2 complex), sequence (Q09028 whole entry partner): as the sequence (Q09028 whole entry partner) above

Structure (SMILES) | CYP1A % Positive Control (CYP1A [1]; 1 μM) | CYP1A % Positive Control (CYP1A [1]; 10 μM) | CYP2B6 % Positive Control (CYP2B6; 1 μM) | CYP2B6 % Positive Control (CYP2B6; 10 μM) | % Cell Remaining vs. Control ([3]; 1 μM) | % Cell Remaining vs. Control ([3]; 10 μM) | KI (inactivation) (CYP3A4/5 [4]; [16]) | inactivation of CYP3A4/5 (in words) (CYP3A4/5 [4]) | IC50 (CYP2C19) | IC50 (CYP1A [6]) | IC50 (CYP2C9 [7]) | IC50 (CYP3A4/5 [8]; pH 7.4, probe midazolam) | IC50 (CYP3A4/5 [8]; pH 7.4, probe testosterone) | CLint scaled [9] | CLint scaled [10] | CLint scaled [11] | metabolic clearance in human liver microsomes (in words) [12] | CLint scaled [12] | CLint scaled [13] | reversible CYP inhibition (in words) [14] | also measured
CCN(c1cc(-c2ccc(OCCOC)cc2)cc(C(=O)NCc2c(C)cc(C)[nH]c2=O)c1C)[C@H]1CC[C@H](N(C)C)CC1 [Compound 1, N-((4,6-dimethyl-2-oxo-1,2-dihydropyridin-3-yl)methyl)-5-(((trans)-4-(dimethylamino)-cyclohexyl)(ethyl)-amino)-4′-(2-methoxyethoxy)-4-methyl-[1,1′-biphenyl]-3-carboxamide] | 2.8% | 3.0% | 18.0% | 26.3% | 107.44% | 99.00% | 6.4 µM | time-, concentration-, and NADPH-dependent inactivation of CYP3A4/5 | 89.6 µM | > 100 µM | > 100 µM | 40.5 µM | > 100 µM | 14.8 mL/min/kg | 8.1 mL/min/kg | 15.4 mL/min/kg | low metabolic clearance | 10.5 mL/min/kg | 58.6 mL/min/kg | no significant reversible inhibition | CYP2C9 % Positive Control (CYP2C9 [2]; 1 μM): 43.5%; CYP2C9 % Positive Control (CYP2C9 [2]; 10 μM): 52.6%; CYP3A % Positive Control (CYP3A; 1 μM): 13.9%; CYP3A % Positive Control (CYP3A; 10 μM): 13.3%; KI (inactivation) (CYP3A4/5 [4]; human, human liver microsomes, pH 7.4, CYP3A4/5, footnote to ** not given, read-out: Time-Dependent Inactivation KI, second value in brackets marked **): 3.3 µM; tumors large enough for analysis at day 28 (Karpas-422 xenograft; 125 mg/kg BID x28, p.o.): 5 out of 10; tumors large enough for analysis at day 28 (Karpas-422 xenograft; 250 mg/kg BID x28, p.o.): 1 out of 10; tumors large enough for analysis at day 28 (Karpas-422 xenograft; 500 mg/kg BID x28, p.o.): too small for analysis; anti-tumor effect in Karpas-422 xenograft model (in words) (Karpas-422 xenograft; oral, BID, up to 28 days, 62.5-500 mg/kg): tumor stasis and regression; tolerability (in words) [5]: well tolerated; IC50 (CYP2C8): > 100 µM
CCN(c1cc(C#CCN2CCOCC2)cc(C(=O)NCc2c(C)cc(C)[nH]c2=O)c1C)[C@H]1CC[C@H](N(C)CCOC)CC1 [Compound 2, N-((4,6-dimethyl-2-oxo-1,2-dihydropyridin-3-yl)methyl)-3-(ethyl((trans)-4-((2-methoxyethyl)(methyl)amino)cyclohexyl)amino)-2-methyl-5-(3-morpholinoprop-1-yn-1-yl)benzamide] |  |  |  |  | 124.70% | 120.90% | 22.3 µM | time-, concentration-, and NADPH-dependent inactivation of CYP3A4/5 | > 100 µM | > 100 µM | > 100 µM | > 100 µM | > 100 µM | 14.8 mL/min/kg | 34.3 mL/min/kg | 17.6 mL/min/kg | low metabolic clearance | 8.8 mL/min/kg | 32.8 mL/min/kg | no significant reversible inhibition | IC50 (CYP2C8): > 100 µM; IC50 (CYP2D6): > 100 µM
CCN(c1cc(C#CC2CCN(C)CC2)cc(C(=O)NCc2c(C)cc(C)[nH]c2=O)c1C)C1CCOCC1 [Compound 105, N-((4,6-Dimethyl-2-oxo-1,2-dihydropyridin-3-yl)methyl)-3-(ethyl(tetrahydro-2H-pyran-4-yl)amino)-2-methyl-5-((1-methylpiperidin-4-yl)ethynyl)benzamide] | 3.0% | 4.4% | 25.5% | 52.2% | 103.19% | 97.49% | 10.2 µM | time-, concentration-, and NADPH-dependent inactivation of CYP3A4/5 | 33.6 µM | > 100 µM | 75.7 µM | 9.67 µM | > 100 µM | 47.5 mL/min/kg | 64.2 mL/min/kg | 54.7 mL/min/kg | low metabolic clearance | 42.1 mL/min/kg | 74.8 mL/min/kg | potentially significant inhibition of CYP2D6 and CYP3A4 (midazolam) | CYP2C9 % Positive Control (CYP2C9 [2]; 1 μM): 50.4%; CYP2C9 % Positive Control (CYP2C9 [2]; 10 μM): 76.3%; CYP3A % Positive Control (CYP3A; 1 μM): 18.1%; CYP3A % Positive Control (CYP3A; 10 μM): 33.8%; IC50 [15]: < 0.01 µM; IC50 (EZH2 (PRC2 complex)): 0.0084 µM; IC50 (CYP2D6): 2.95 µM

— patent US9006242B2, “Substituted benzene compounds” (Epizyme, Inc., priority 2012, dated 2015)
